Measured values reported in article PMC11944515, “Host-Mediated Antimicrobial Effects and NLRP3 Inflammasome Modulation by Caulerpin and Its Derivatives in Macrophage Models of Mycobacterial Infections” (Microorganisms, 2025).

Tests used:
[1] = test system: M. smegmatis within RAW 264.7 macrophages; assay: Therapeutic potential in M. smegmatis-infected RAW 264.7 cells (CFU); assay type: cell-based, Mycobacterium smegmatis; conditions: 15, 7.5 and 3.25 µM, 24 h
Protocol: For the first in vitro infection test with M. smegmatis, RAW 264.7 were seeded in 96-well culture plates at a density of 1 × 10^4 cells/well in DMEM medium (with 10% FBS, without antibiotics) and incubated overnight at 37 °C with 5% CO2 [20]. Infection of RAW 264.7 cells with M. smegmatis mc^2155 was performed at a multiplicity of infection of 1:1 for 2 h at 37 °C with 5% CO2. The medium with non-internalized bacteria was removed, and infected cells were then treated with the tested substances in DMEM: CP (15 µM, 7.5 µM and 3.25 µM), CA (30 µM, 15 µM, 7.5 µM and 3.25 µM), DE (15 µM, 7.5 µM and 3.25 µM), and DP (15 µM, 7.5 µM and 3.25 µM). Macrophages were lysed after 24 h with 0.1% Triton–X100, and these suspensions were diluted and plated on LB. CFU was determined after incubation of plates for 3 days at 37 °C. CFU numbers were expressed as log (CFU/well).

[2] = test system: RAW 264.7 cells; assay: Direct effects on RAW 264.7 cell viability (MTT); assay type: cell-based, murine
Protocol: The direct effects of CP and its analogues on RAW 264.7 viability were evaluated using the MTT method. RAW 264.7 cells were seeded at 1 × 10^4 cells/well (for 24 h incubation) and 5 × 10^3 cells/well (for 48 h incubation) and incubated overnight to allow adhesion. The culture medium was carefully aspirated and replaced with 100 μL DMEM plus 100 μL of test compound solutions, yielding final concentrations ranging from 3.25 to 30 µM (DMSO 1%, v/v). After 24 or 48 h of exposure to test compounds, cells were incubated with MTT (0.5 mg/mL) for 3 h. The resulting formazan crystals were dried, dissolved in DMSO, and absorbance was measured at 570 nm using a microplate reader (EL800, BioTek, Winooski, VT, USA). The precipitated purple formazan crystals were directly proportional to the number of metabolically active viable cells. The cell viability was then calculated as: Cell viability (%) = (Sample absorbance/Control absorbance) × 100. Data were expressed as mean of cell viability ± standard error of the mean from three to four independent experiments performed in triplicate.

[3] = test system: Mycobacterium smegmatis mc2155; assay: M. smegmatis susceptibility by CFU enumeration; assay type: cell-based
[4] = test system: M. tuberculosis H37Ra; assay: M. tuberculosis susceptibility by CFU enumeration; assay type: cell-based, Mycobacterium tuberculosis; conditions: 0.03 μM, 48 h of treatment, positive control
Protocol: Next, CP, CA, and DE were diluted in Middlebrook 7H9 plus 10% OADC for the cellular susceptibility assay with M. tuberculosis H37Ra to yield concentrations up to 15 µM, 30 µM, and 15 µM, respectively. RIF at 0.03 µM was used as a positive control. The final DMSO concentration in all wells was 2.5%. The M. tuberculosis suspension was diluted in 7H9 plus 10% OADC to achieve an optical density of 0.006 at 595 nm, and 100 μL was then added to each well. Plates were covered, sealed with parafilm, and incubated at 37 °C for 48 h. After incubation, aliquots were removed, diluted, and plated in Middlebrook 7H10 agar plus 10% OADC. Plates were incubated at 37 °C for 4 weeks, and CFU were counted. CFU numbers were expressed as log10(CFU/mL).

Structure (SMILES): CCCOC(=O)/C1=C/c2c([nH]c3ccccc23)/C(C(=O)OCCC)=C\c2c1[nH]c1ccccc21 [DP, (6E,13E)-dipropyl 5,12-dihydrocycloocta[1,2-b:5,6-b′]diindole-6,13-dicarboxylate]
- effect on intracellular M. smegmatis growth in RAW 264.7 [1]: no inhibitory effect
- effect on RAW 264.7 cell viability ([2]; 24 h incubation, 3.25 to 30 µM): did not affect viability at any of the concentrations tested
- effect on RAW 264.7 cell viability ([2]; 48 h incubation): did not affect cell viability at any concentration evaluated
- reduction of M. smegmatis viability ([3]; 30 μM, 24 h incubation): 0.639 log10 CFU

Structure (SMILES): CCCCCOC(=O)/C1=C/c2c([nH]c3ccccc23)/C(C(=O)OCCCCC)=C\c2c1[nH]c1ccccc21 [diamyl, (6E,13E)-dipentyl 5,12-dihydrocycloocta[1,2-b:5,6-b′]diindole-6,13-dicarboxylate]
- effect on RAW 264.7 cell viability ([2]; 24 h incubation, 3.25 to 30 µM): affected cell viability at all concentrations assessed

Structure (SMILES): CO[C@H]1/C=C/O[C@@]2(C)Oc3c(C)c(O)c4c(O)c(c(/C=N/N5CCN(C)CC5)c(O)c4c3C2=O)NC(=O)/C(C)=C\C=C\[C@H](C)[C@H](O)[C@@H](C)[C@@H](O)[C@@H](C)[C@H](OC(C)=O)[C@@H]1C [RIF, Rifampicin, reference compound]
- reduction of M. tuberculosis bacterial burden [4]: 0.362 log10 CFU/mL
- reduction of M. smegmatis CFU count ([3]; 31 μM, 24 h of incubation, positive control): 3.41 log10

Structure (SMILES): CC(C)COC(=O)/C1=C/c2c([nH]c3ccccc23)/C(C(=O)OCC(C)C)=C\c2c1[nH]c1ccccc21 [Diisobutyl, (6E,13E)-diisobutyl 5,12-dihydrocycloocta[1,2-b:5,6-b′]diindole-6,13-dicarboxylate]
- effect on RAW 264.7 cell viability ([2]; 24 h incubation, 3.25 to 30 µM): affected cell viability at the three highest concentrations assessed
